Data on two compounds can be found in patent publication US10899754B2, “Modulators of indoleamine 2,3-dioxygenase” (GLAXOSMITHKLINE INTELLECTUAL PROPERTY DEVELOPMENT LIMITED, priority 2016, dated 2021).

For test [1], the target named is indoleamine 2, 3-dioxygenase (IDO1) (Homo sapiens, UniProt P14902). Description: IDO1 HeLa RapidFire MS assay (kynurenine detection by mass spectrometry). The class given is cell-based. On the set-up: to induce the expression of indoleamine 2, 3-dioxygenase (IDO1). The note with it: HeLa cells, pIC50, read-out: IDO1_HELA_PXC50 (converted). The procedure, abridged: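 Compound potency reported as pIC50 from kynurenine/internal-standard ratio (RapidFire MS) in supernatant of IFN-γ-induced (10 nM) HeLa cells, 5,000 per well, after 2 days' treatment with 11-point dilutions. Cytotoxicity in the same format by luminescent ATP detection, reported as pCC50.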

For test [2], the target named is T1, ePL tagged IDO1 (Homo sapiens, UniProt P14902).
T1 construct: expressed in transfected cells; host or cells: HeLa cells transduced with BacMam virus
The experiment in a line: CETSA (Cellular Thermal Shifting assay) in Hela cells. The following applies: BacMam ePL tagged IDO1, 3 hours at 37° C., heated at 53° C. for 3 min. The class given is binding. As to the method:
Cellular Thermal Shifting assays were used to directly monitor the ligand binding to target proteins in cells. Hela cells were transduced with BacMam virus expressing ePL tagged IDO1 overnight. The cells were then plated over the compounds for 3 hours at 37° C. in cell culture medium containing 1% FBS. The plates were then sealed and heated at 53° C. for 3 min. InCell Hunter reagents were added and luminescence was read in 90 min.

Where two headings read alike, the source gives them in different places.

T1 sequence (P14902 whole entry): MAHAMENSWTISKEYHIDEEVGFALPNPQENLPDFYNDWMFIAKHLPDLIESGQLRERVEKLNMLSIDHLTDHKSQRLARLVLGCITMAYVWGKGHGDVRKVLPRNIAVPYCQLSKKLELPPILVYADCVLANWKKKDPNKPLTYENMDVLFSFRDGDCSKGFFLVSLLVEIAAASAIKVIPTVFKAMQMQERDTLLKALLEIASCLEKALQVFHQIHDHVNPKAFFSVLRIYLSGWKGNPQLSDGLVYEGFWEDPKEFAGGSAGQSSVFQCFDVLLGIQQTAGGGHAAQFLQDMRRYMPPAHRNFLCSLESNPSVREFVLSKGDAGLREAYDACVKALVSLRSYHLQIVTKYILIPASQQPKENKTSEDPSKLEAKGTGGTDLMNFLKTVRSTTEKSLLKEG
indoleamine 2, 3-dioxygenase (IDO1), sequence (P14902 whole entry): as above

With `CC(C)CN(c1ccc([C@H](C)CC(=O)O)cc1Nc1nnc(C2CC2)s1)C1CCOCC1` [Example 23, (R)-3-(3-((5-cyclopropyl-1,3,4-thiadiazol-2-yl)amino)-4-(isobutyl (tetrahydro-2H-pyran-4-yl)amino)phenyl)butanoic Acid], the IC50 in test [1] was 3.98 nM. Further, the EC50 in test [2] (read-out: pXC50_1 (converted)) is 331 nM; in test [2] (read-out: pXC50_2 (converted)), 234 nM.
With `CC(C)CN(c1ccc([C@H](C)CC(=O)O)cc1Nc1nc(C(F)(F)F)ns1)C1CCOCC1` [Example 20, (R)-3-(4-(Isobutyl(tetrahydro-2H-pyran-4-yl)amino)-3-((3-(trifluoromethyl)-1,2,4-thiadiazol-5-yl)amino)phenyl)butanoic Acid], the IC50 in test [1] is 2.51 nM. The EC50 in test [2] (read-out: pXC50_1 (converted)) is 9.55 nM.
